In ChEMBL document CHEMBL1250550, “Design, synthesis, biological evaluation, and modeling of a non-carbohydrate antagonist of the myelin-associated glycoprotein” (Bioorg Med Chem, 2010):

Key:
[1] = molecular target: T1, Myelin-associated glycoprotein (Mus musculus) (UniProt P20917); test: Antagonist activity at mouse MAGd1-3Fc domain expressed in CHO-Lec1 cells by fluorescent hapten binding assay relative to (2R,4R,5S,6R)-5-acetamido-6-((1R,2R)-3-benzamido-1,2-dihydroxypropyl)-2-(benzyloxy)-4-hydroxytetrahydro-2H-pyran-2-carboxylate; type: cell-based
T1 sequence (whole entry): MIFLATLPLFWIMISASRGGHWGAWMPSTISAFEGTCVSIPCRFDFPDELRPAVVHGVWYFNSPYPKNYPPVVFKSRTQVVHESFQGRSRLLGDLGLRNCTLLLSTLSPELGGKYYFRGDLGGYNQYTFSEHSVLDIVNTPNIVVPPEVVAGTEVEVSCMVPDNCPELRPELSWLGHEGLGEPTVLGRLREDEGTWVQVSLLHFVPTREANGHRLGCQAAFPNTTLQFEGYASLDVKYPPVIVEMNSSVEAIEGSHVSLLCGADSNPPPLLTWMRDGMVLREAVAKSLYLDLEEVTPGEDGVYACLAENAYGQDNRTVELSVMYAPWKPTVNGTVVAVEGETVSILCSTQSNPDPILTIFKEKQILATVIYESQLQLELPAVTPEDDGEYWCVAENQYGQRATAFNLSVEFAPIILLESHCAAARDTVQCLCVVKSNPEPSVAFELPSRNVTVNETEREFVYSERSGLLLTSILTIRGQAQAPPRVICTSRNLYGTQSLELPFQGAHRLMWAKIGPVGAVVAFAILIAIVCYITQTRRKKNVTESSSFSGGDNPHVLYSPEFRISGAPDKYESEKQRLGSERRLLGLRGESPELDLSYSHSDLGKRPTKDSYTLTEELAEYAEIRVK

[2] = molecular target: T2, Myelin-associated glycoprotein (Mus musculus, UniProt P20917); test: Binding affinity to mouse MAGd1-3Fc domain expressed in CHO-Lec1 cells by surface plasmon resonance
T2 sequence (P20917 whole entry): T1 sequence (whole entry)

Row | Compound | Ratio IC50 [1] | Kd [2] [µM]
1 | CC(=O)N[C@H]1C[C@](OCc2ccccc2)(C(=O)O)C[C@@H](OCCNC(=O)c2ccc(Cl)cc2)[C@@H]1NC(=O)CF | 4300 | > 800
2 | O=C(CF)N[C@H]1[C@H]([C@H](O)[C@H](O)CNC(=O)c2ccc(Cl)cc2)O[C@@](OCc2cccc(F)c2F)(C(=O)O)C[C@@H]1O | 0.02 | 0.5
3 | CC(=O)N[C@H]1[C@H]([C@H](O)[C@H](O)CNC(=O)c2ccccc2)O[C@@](OCc2ccccc2)(C(=O)O)C[C@@H]1O |  | 26
